Laboratory results published in patent US20150250882A1, “Fatty Acid Acylated Amino Acids for Growth Hormone Delivery” (Novo Nordisk Health Care AG, priority 2012, published 2015).
Each block holds one compound with its values, some of them ahead of it.

What was measured:
HT29-MTX (E12) cells = assay: Transepithelial transport of GH compounds across E12 cell monolayers (Papp); format: in vitro ADME; conditions: for Fold increase (Papp of GH A2 + FA-aa relative to GH A2 alone): GH-A2, same procedure: 0.5 mM FA-aa, transport buffer pH 7.4; for effect on permeation / trans-epithelia transport of the growth hormone compounds (in words): GH-A1 and GH-A2; for effect on GH A1 transport (in words): based on fold increase relative to GH A1 alone; for effect on the transportation of GH A2 (in words): fold increase relative to GH A2 alone
Procedure: HT29-MTX (E12) cells (Pharm Res. 2001; 18(8):1138-45 and Pharm Res. 2007; 24(7):1346-56) were grown in Dulbecco's Modified Eagle Medium supplemented with 10% foetal bovine serum (FBS), 1% penicillin/streptomycin, 1% L-glutamine and 1% non-essential amino acids. For the transport assay, E12 cells were seeded onto tissue culture treated polycarbonate filters in 12-well Transwell® plates (1.13 cm2, 0.4 μm pore size) at a density of 10^5 cells per well. Cells were cultured at 37° C. in an atmosphere of 5% CO2 and the culture media was exchange every second day. Transport experiments were performed after 14-18 days in culture.
The amount of GH compound transported from the donor chamber (apical side) to the receiver chamber (basolateral side) was measured.
Before the experiment, the E12 cells are equilibrated for 60 min with transport buffer on both sides of the epithelium. Buffer is then removed and the experiment initiated by adding a test solution to the donor chamber and a corresponding transport buffer to the receiver chamber. Donor samples ([…]) are taken at 0 min and at the end of the experiment. Receiver samples ([…]) are taken at regular intervals such as every 15 min. The study is usually performed in an atmosphere of 5% CO2-95% O2 at 37° C. on a shaking plate (30 rpm).
Transport of [3H]mannitol, a marker for paracellular transport, may be measured, to verify the integrity of the epithelium, using a scintillation counter.
Before and during the experiment the transepithelial electrical resistance (TEER) of the cell monolayers is monitored. The TEER is measured with EVOM™ Epithelial Voltohmmeter connected to Chopsticks.
The transport study was performed as described in General Method D (Example 1). […] […] The permeation (Papp) of a Growth hormone compound in the presence of different FA-aa's was measured and the fold increase (or decrease) compared to the Growth hormone compound alone was calculated.

[1] = Pharmacokinetics (T½) of growth hormone compounds in rats after i.v./s.c. single dose; format: in vivo, Sprague Dawley rats; conditions: assay of Example 1.C (i.v. or s.c.)
Procedure: The pharmacokinetic of the compounds of the examples is investigated in male Sprague Dawley rats after intravenous (i.v.) and subcutaneous (s.c.) single dose administration.
Test compounds are diluted to a final concentration of 1 mg/mL in a dilution buffer consisting of: Glycine 20 mg/mL, mannitol 2 mg/mL, NaHCO3 2.5 mg/mL, pH adjusted to 8.2.
The test compounds are studied in male Sprague Dawley rats weighing 250 g. The test compounds are administered as a single injection either i.v. in the tail vein or s.c. in the neck with a 25 G needle at a predetermined dose such as of 15 nmol/rat in volume of 0.1 ml (concentration 150 nmol/ml) or 60 nmol/kg body weight. […]
At each sampling time 0.25 ml blood is drawn from the tail vein using a 25 G needle. The blood is sampled into a EDTA coated test tube and stored on ice until centrifugation at 1200×G for 10 min at 4° C. […]
Test compound concentrations are determined by a sandwich ELISA using a guinea pig anti-hGH polyclonal antibody as catcher, and biotinylated hGH binding-protein (soluble part of human GH receptor) as detector. […]
A non-compartmental pharmacokinetic analysis is performed on mean concentration-time profiles of each test compound using WinNonlin Professional (Pharsight Inc., Mountain View, Calif., USA). The pharmacokinetic parameter estimates of terminal half-life (t1/2) and mean residence time (MRT) are calculated.

[2] = Intra intestinal (mid-jejunum) administration of GH compounds with FA-aa to rats, AUC enhancement; format: in vivo, Sprague-Dawley rats; conditions: SBTI 2% with C16-sarcosinate 30 mg/ml, FIGS. 5, 6 and 7
Procedure: Each composition is prepared as a 100 pl dosage injected into mid-jejenum of fully anaesthetized overnight fasted Sprague-Dawley rats (n=6, 9 or 18).
At each sampling time 0.25 ml blood is drawn from the tail vein using a 25 G needle. Sampling times are: pre-dose and 0.25, 0.5, 1, 2, 4 and 6 hours after dosing. The blood is sampled into a EDTA coated test tube and stored on ice until centrifugation at 1200×G for 10 min at 4° C. Plasma is transferred to a Micronic tube and stored at −20° C. until analysis.
The limit of detection of the assay was 0.2 nM.
The samples were analysed using a Luminescence Oxygen Channeling Immunoassay (LOCI), a homogenous bead based assay. […] One of the bead reagents is a generic reagent (donor beads) and is coated with streptavidin and contains a photosensitive dye. The second bead reagent (acceptor beads) is coated with an antibody making up the sandwich. […] Illumination of the complex releases singlet oxygen from the donor beads which channels into the acceptor beads and triggers chemiluminescence which is measured in the EnVision plate reader. […]

Compound: CCCCCCCCCCCCCCCC(=O)NC(CC(=O)O)C(=O)O (stereo not drawn) [C16-(D)-Asp]
- Fold increase (Papp of GH A2 + FA-aa relative to GH A2 alone) (HT29-MTX (E12) cells): 1.8 fold

Compound: CCCCCCCCCC(=O)N(C)CC(=O)O [C10-Sarc, N-decanoyl-L-sarcosine]
- Fold increase (Papp of GH A2 + FA-aa relative to GH A2 alone) (HT29-MTX (E12) cells): 0.7 fold

Compound: wt human growth hormone: human growth hormone identified by SEQ ID NO 1
- T ½ [1]: 12 to 14 min

Compound: CCCCCCCCCCCCCCCC(=O)N(C)CC(=O)[O-].[Na+] [C16-Sarc, sodium 2-[hexadecanoyl(methyl)amino]acetate]
- effect of protease inhibitor on GH absorption enhancing effect of FA-aa (in words) [2]: significantly improved by the presence of an enzyme inhibitor

Compound: CCCCCCCCCCCC(=O)NCC(=O)O [C12-Gly, N-dodecanoyl-L-glycine]
- Fold increase (Papp of GH A2 + FA-aa relative to GH A2 alone) (HT29-MTX (E12) cells): 3.4 fold

Other lines, results leading:

- Fold increase (Papp of GH A2 + FA-aa relative to GH A2 alone) (HT29-MTX (E12) cells): 4.1 fold
Compound: CCCCCCCCCCCCCCCC(=O)NC(CCC(=O)O)C(=O)O [C16-D-Glu]

- effect on permeation / trans-epithelia transport of the growth hormone compounds (in words) (HT29-MTX (E12) cells): superior effect
- effect on GH A1 transport (in words) (HT29-MTX (E12) cells): biggest effect
- effect on the transportation of GH A2 (in words) (HT29-MTX (E12) cells): biggest effect
Compound: CCCCCCCCCCCCCCCC(=O)N[C@@H](CCC(=O)[O-])C(=O)[O-].[Na+].[Na+] [C16-Glu, disodium (2S)-2-(hexadecanoylamino)pentanedioate]

- effect on permeation / trans-epithelia transport of the growth hormone compounds (in words) (HT29-MTX (E12) cells): superior effect
- effect on GH A1 transport (in words) (HT29-MTX (E12) cells): biggest effect
- effect on the transportation of GH A2 (in words) (HT29-MTX (E12) cells): biggest effect
Compound: CCCCCCCCCCCCCCCC(=O)N[C@@H](CCC(N)=O)C(=O)[O-].[Na+] [C16-Gln, sodium (2S)-5-amino-5-oxo-2-(hexadecanoylamino)pentanoate]
